Where a name gives a salt, the structure may show the parent alone. Read-outs that look alike come from different tables or passages of the source.
How the values were obtained:
[1] = pH 7.4; see U.S. Pat. No. 8,030,356; cited from earlier work
[2] = HNO yield from N2O headspace analysis after complete decomposition, compared to 2BrPA; assay type: physicochemical; conditions: for % HNO: 37° C. in PBS (pH 7.4), N2O headspace analysis, reported in comparison to 2BrPA (SEM 5%; n = 3); for HNO production compared to 2BrPA: in words; for HNO yield: of the amount of HNO from 2BrPA
Excerpt: As used herein, a compound is a “nitroxyl donor” if it donates nitroxyl under physiological conditions. As used herein, the presently disclosed nitroxyl donors alternatively may be referred to as “a compound” or “the compound.” Preferably, the nitroxyl donor is capable of donating an effective amount of nitroxyl in vivo and has a safety profile indicating the compound would be tolerated by an individual in the amount necessary to achieve a therapeutic effect. One of ordinary skill in the art would be able to determine the safety of administering particular compounds and dosages to live subjects. One of skill in the art also may determine whether a compound is a nitroxyl donor by evaluating whether it releases HNO under physiological conditions. Compounds are easily tested for nitroxyl donation with routine experiments. Although it is impractical to directly measure whether nitroxyl is donated, several tests are accepted for determining whether a compound donates nitroxyl. For example, the compound of interest can be placed in solution, for example in water, in a sealed container. After sufficient time for disassociation has elapsed, such as from several minutes to several hours, the headspace gas is withdrawn and analyzed to determine its composition, such as by gas chromatography and/or mass spectroscopy. If the gas N2O is formed (which occurs by HNO dimerization), the test is positive for nitroxyl donation and the compound is a nitroxyl donor. The level of nitroxyl-donating ability may be expressed as a percentage of a compound's theoretical maximum. A compound that donates a “significant level of nitroxyl” intends a compound that donates 40% or more or 50% or more of its theoretical maximum amount of nitroxyl. In one variation, the compounds for use herein donate 60% or more of the theoretical maximum amount of nitroxyl. In another variation, the compounds for use herein donate 70% or more of the theoretical maximum amount of nitroxyl. In another variation, the compounds for use herein donate 80% or more of the theoretical maximum amount of nitroxyl. In another variation, the compounds for use herein donate 90% or more of the theoretical maximum amount of nitroxyl. In yet another variation, the compounds for use herein donate between about 70% and about 90% of the theoretical maximum amount of nitroxyl. In yet another variation, the compounds for use herein donate between about 85% and about 95% of the theoretical maximum amount of nitroxyl. In yet another variation, the compounds for use herein donate between about 90% and about 95% of the theoretical maximum amount of nitroxyl.

[3] = Decomposition of 2-bromo-benzenesulfonamidyl-alkylamino carbonates 2 (2BrPA release) in PBS, UV/vis or HPLC; assay type: physicochemical
Experimental: The donor 2BrPA produces HNO in high yield at pH 7.4 with a single defined half-life of approximately 2 minutes. See U.S. Pat. No. 8,030,356, to Toscano et al., which is incorporated herein by reference in its entirety. Changing (R) on the trigger amine or the spacer length (n) in 2 makes it possible to tune the effective HNO production rate through controlled 2BrPA release (Table 2). Donors 2, with release rates slower than the half-life of 2BrPA, produce HNO at the rate of cyclization. The decomposition products, rates, and HNO production were analyzed and compared to 2BrPA (Table 2).

[4] = Monitoring of 2d decomposition byproducts by NMR; assay type: physicochemical; conditions: decomposition of 2d
Excerpt: The cyclized byproduct 3, expected from an HNO forming pathway, from 2d, formed in approximately 60% yield (Scheme 4). The yield of 3 is consistent with the yield of HNO detected (64%) (Table 2). The cyclized product 5 also was identified and formed in approximately 10% yield. Another byproduct formed in approximately 30% yield.

| Compound | % HNO [2] [%] | HNO production compared to 2BrPA [2] | HNO yield [2] [%] | also measured |
| --- | --- | --- | --- | --- |
| O=S(=O)(NO)c1ccccc1Br [2BrPA, N-hydroxy-2-bromobenzenesulfonamide] |  |  |  | HNO production [1]: high yield |
| CNCCOC(=O)ONS(=O)(=O)c1ccccc1Br.Cl [Cmpd 2a, 2-Bromo-benzenesulfonamidyl-2-(methylamino)-ethyl carbonate hydrochlor-ide] | 93 |  |  |  |
| Cl.O=C(OCCNCc1ccccc1)ONS(=O)(=O)c1ccccc1Br [Cmpd 2b, 2-Bromo-benzenesulfonamidyl-2-(benzylamino)-ethyl carbonate hydrochlori-de] | 99 |  |  |  |
| CC(C)NCCOC(=O)ONS(=O)(=O)c1ccccc1Br [Cmpd 2c, 2-Bromo-benzenesulfonamidyl-2-(iso-propylamino)-ethyl carbonate hydroc-hloride] | 97 |  |  | half-life ([3]; PBS buffer, pH 7.4, text, fast-releasing derivatives (UV/vis values of Table 2), PBS buffer, read-out: half-life): < 1 min; half-life ([3]; PBS, pH 7.4, 37° C. in PBS (pH 7.4), determined by UV/vis (SEM ± 5%; n = 3), read-out: t1/2 (converted)): 0.783 min |
| CC(C)(C)NCCOC(=O)ONS(=O)(=O)c1ccccc1Br [Cmpd 2d, 2-Bromo-benzenesulfonamidyl-2-(tert-butylamino)-ethyl carbonate hydrochl-oride] | 64 | significantly lower | 64 | half-life ([3]; PBS, pH 7.4, 37° C. in PBS (pH 7.4), determined by HPLC (SEM ± 5%; n = 3), read-out: t1/2 (converted)): 47 min; yield of another byproduct [4]: approximately 30%; yield of cyclized byproduct 3 (HNO forming pathway) [4]: approximately 60%; yield of cyclized product 5 [4]: approximately 10% |
| Cl.O=C(OCCNc1ccccc1)ONS(=O)(=O)c1ccccc1Br [Cmpd 2e, 2-Bromo-benzenesulfonamidyl-2-(phenylamino)-ethyl carbonate hydrochlo-ride] | 91 |  |  |  |
| CC(C)NCCCOC(=O)ONS(=O)(=O)c1ccccc1Br.Cl [Cmpd 2h, 2-Bromo-benzenesulfonamidyl-3-(iso-propylamino)-propyl carbonate hydro-chloride] | 30 | significantly lower | 30 |  |
| COc1ccc(NCCOC(=O)ONS(=O)(=O)c2ccccc2Br)cc1 [hydrochloride] | 93 |  |  | half-life ([3]; 37° C. in PBS (pH 7.4), determined by UV/vis (SEM ± 5%; n = 3), read-out: t1/2 (converted)): 0.833 min; half-life ([3]; pH 7.4, fast-releasing derivatives (UV/vis values of Table 2), PBS buffer, read-out: half-life): 0.8 min |
| O=C(OCCNc1ccc(Cl)cc1)ONS(=O)(=O)c1ccccc1Br [hydrochloride] | 69 | significantly lower | 69 | half-life ([3]; PBS, pH 7.4, slow-releasing derivatives (HPLC values of Table 2), read-out: half-life): 50 min |
